# From ChEMBL document CHEMBL1201862, “PubChem BioAssay data set” (2004)
#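 Assay format: 96-well plates, 48-hour exposure. GI50 = concentration required for 50% inhibition of growth.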 Activity calls are given as the source filed them. No stated cut-off is given here; in the data, active = GI50 up to about 1.1 µM and inactive = higher.
# Columns and labels:
# Test in all cases: NCI tumour cell line growth inhibition, 48 h
# [1] = system: IGROV-1
# [2] = system: HCT-15
# [3] = system: NCI-H226
# [4] = system: RXF 393
# [5] = system: SK-MEL-5
# [6] = system: SN12C
# [7] = system: LOX IMVI
# [8] = system: 786-0
# [9] = system: K562
# [10] = system: HCT-116
# [11] = system: EKVX
# [12] = system: MDA-MB-231
# [13] = system: T47D
# [14] = system: HOP-92
# [15] = system: UO-31
# [16] = system: UACC-257
# [17] = system: A549
# [18] = system: MDA-MB-435
# [19] = system: NCI-H522
# [20] = system: M14
# [21] = system: OVCAR-5
# [22] = system: SNB-19
# [23] = system: U-251
# [24] = system: UACC-62
# [25] = system: COLO 205
# [26] = system: BT-549
# [27] = system: CCRF-CEM
# [28] = system: HT-29
# [29] = system: ACHN
# [30] = system: SNB-75
# [31] = system: A498
# [32] = system: OVCAR-8
# [33] = system: MOLT-4
# [34] = system: RPMI-8226
# [35] = system: Hs-578T
# [36] = system: HOP-62
# [37] = system: OVCAR-3
# [38] = system: SF-295
# [39] = system: PC-3
# [40] = system: TK-10
# [41] = system: SK-OV-3
# [42] = system: SR
# [43] = system: DU-145
# [44] = system: NCI-H460
# [45] = system: SW-620
# [46] = system: KM12
# [47] = system: SF-268
# [48] = system: OVCAR-4
# [49] = system: Malme-3M
# [50] = system: SK-MEL-28
# [51] = system: MCF7
# [52] = system: MDA-N
# [53] = system: NCI/ADR-RES
# [54] = system: SF-539
# [55] = system: NCI-H23
# [56] = system: SK-MEL-2
# [57] = system: CAKI-1
# [58] = system: HCC 2998
compound,measurement,setting,value
COc1cccc2cc(C(=O)Nc3ccccc3)c(=N)oc12,GI50,[1],49.5 µM (inactive)
same,GI50,[2],> 100 µM
same,GI50,[3],> 100 µM (inactive)
same,GI50,[4],> 100 µM (inactive)
same,GI50,[5],> 81.3 µM (inactive)
same,GI50,[6],> 100 µM (inactive)
same,GI50,[7],> 100 µM (inactive)
same,GI50,[8],15.7 µM (inactive)
same,GI50,[9],> 100 µM (inactive)
same,GI50,[10],24.3 µM (inactive)
same,GI50,[11],> 100 µM (inactive)
same,GI50,[12],13 µM (inactive)
same,GI50,[13],6.01 µM (inactive)
same,GI50,[14],22.2 µM (inactive)
same,GI50,[15],> 48.1 µM (inactive)
same,GI50,[16],> 100 µM (inactive)
same,GI50,[17],> 100 µM (inactive)
same,GI50,[18],> 100 µM (inactive)
same,GI50,[19],> 28.2 µM (inactive)
same,GI50,[20],> 100 µM (inactive)
same,GI50,[21],> 100 µM (inactive)
same,GI50,[22],> 75.9 µM (inactive)
same,GI50,[23],67.6 µM (inactive)
same,GI50,[24],62.4 µM (inactive)
same,GI50,[25],> 100 µM (inactive)
same,GI50,[26],> 100 µM (inactive)
same,GI50,[27],> 21.8 µM (inactive)
same,GI50,[28],> 100 µM (inactive)
same,GI50,[29],> 100 µM (inactive)
same,GI50,[30],16.7 µM (inactive)
same,GI50,[31],> 100 µM (inactive)
same,GI50,[32],> 46.6 µM (inactive)
same,GI50,[33],> 100 µM (inactive)
same,GI50,[34],> 100 µM (inactive)
same,GI50,[35],10.4 µM (inactive)
same,GI50,[36],> 58.5 µM (inactive)
same,GI50,[37],> 100 µM (inactive)
same,GI50,[38],> 100 µM (inactive)
same,GI50,[39],> 100 µM (inactive)
same,GI50,[40],> 100 µM (inactive)
same,GI50,[41],> 64 µM (inactive)
same,GI50,[42],> 71 µM (inactive)
same,GI50,[43],> 100 µM (inactive)
same,GI50,[44],> 100 µM (inactive)
same,GI50,[45],> 100 µM (inactive)
same,GI50,[46],> 29.6 µM (inactive)
same,GI50,[47],> 85.9 µM (inactive)
same,GI50,[48],> 100 µM (inactive)
same,GI50,[49],> 100 µM (inactive)
same,GI50,[50],> 100 µM (inactive)
same,GI50,[51],5.93 µM (inactive)
same,GI50,[52],> 100 µM (inactive)
same,GI50,[53],> 100 µM (inactive)
same,GI50,[54],> 100 µM (inactive)
same,GI50,[55],> 69.2 µM (inactive)
same,GI50,[56],> 100 µM (inactive)
O=C(Nc1ccc2ncccc2c1)Nc1ccc2ncccc2c1,GI50,[1],> 100 µM (inactive)
same,GI50,[57],> 100 µM (inactive)
same,GI50,[2],> 100 µM
same,GI50,[3],> 100 µM (inactive)
same,GI50,[4],> 100 µM (inactive)
same,GI50,[5],> 100 µM (inactive)
same,GI50,[6],> 100 µM (inactive)
same,GI50,[7],> 100 µM (inactive)
same,GI50,[8],> 100 µM (inactive)
same,GI50,[9],> 100 µM (inactive)
same,GI50,[10],> 100 µM (inactive)
same,GI50,[11],> 100 µM (inactive)
same,GI50,[12],> 100 µM (inactive)
same,GI50,[13],> 100 µM (inactive)
same,GI50,[14],> 100 µM (inactive)
same,GI50,[15],> 100 µM (inactive)
same,GI50,[16],> 100 µM (inactive)
same,GI50,[17],> 100 µM (inactive)
same,GI50,[18],> 100 µM (inactive)
same,GI50,[19],> 100 µM (inactive)
same,GI50,[20],> 100 µM (inactive)
same,GI50,[21],> 100 µM (inactive)
same,GI50,[22],> 100 µM (inactive)
same,GI50,[23],> 100 µM (inactive)
same,GI50,[24],> 100 µM (inactive)
same,GI50,[25],> 100 µM (inactive)
same,GI50,[26],> 100 µM (inactive)
same,GI50,[27],> 100 µM (inactive)
same,GI50,[28],> 100 µM (inactive)
same,GI50,[29],> 100 µM (inactive)
same,GI50,[30],> 100 µM (inactive)
same,GI50,[31],> 100 µM (inactive)
same,GI50,[32],> 100 µM (inactive)
same,GI50,[33],> 100 µM (inactive)
same,GI50,[34],> 100 µM (inactive)
same,GI50,[35],> 100 µM (inactive)
same,GI50,[36],> 100 µM (inactive)
same,GI50,[37],> 100 µM (inactive)
same,GI50,[38],> 100 µM (inactive)
same,GI50,[39],> 100 µM (inactive)
same,GI50,[40],> 100 µM (inactive)
same,GI50,[41],> 100 µM (inactive)
same,GI50,[42],> 100 µM (inactive)
same,GI50,[58],> 100 µM (inactive)
same,GI50,[43],> 100 µM (inactive)
same,GI50,[44],> 100 µM (inactive)
same,GI50,[45],> 100 µM (inactive)
same,GI50,[46],> 100 µM (inactive)
same,GI50,[47],> 100 µM (inactive)
same,GI50,[48],> 100 µM (inactive)
same,GI50,[49],> 100 µM (inactive)
same,GI50,[50],> 100 µM (inactive)
same,GI50,[51],> 100 µM (inactive)
same,GI50,[52],> 100 µM (inactive)
same,GI50,[53],> 100 µM (inactive)
same,GI50,[54],> 100 µM (inactive)
same,GI50,[55],> 100 µM (inactive)
same,GI50,[56],> 100 µM (inactive)
